Marks after values point to notes of the source that are not given here.

For one data set, the system named is CD-1 mouse. Description: Preliminary dose study, primary biomarkers of tumor promotion. It is filed as in vivo. To be noted: 0.25 and 0.5 mg of Lupeol per animal, topical; data not shown. As to the method: (§1) Studies from the inventors' laboratory and by other have shown that TPA application to mouse skin results in cutaneous edema (Katiyar et at, 1996; Liang et at, 2002). In the present study, the inventors evaluated the protective effects of topical application of Lupeol in TPA-mediated cutaneous edema in CD-1 mouse. The inventors tested four doses 0.25, 0.5, 1 and 2 mg of Lupeol per animal in the inventors' preliminary studies. […] The CD-1 mice were topically treated with Lupeol (1 and 2 mg/mouse) and 30 min later were topically treated with TPA (3.2 nmole/mouse). […] At least four determinations were made at different dorsal skin sites per mouse in each group. The data represents the mean±SE of eight mice (*p<0.01 vs TPA).

Another data set concerns CD-1 mouse skin. The experiment in a line: TPA-induced cutaneous edema, skin punch weight. Format: in vivo. To be noted: for protection against TPA-induced skin edema: dose not stated, p<0.01. As to the method:
as §1
The animals were shaved on the dorsal side of the skin, divided into four groups and treated topically on the shaved area with either 0.4 ml vehicle (acetone), or TPA (3.2 nmol/0.4 ml acetone/animal, v/v), or Lupeol (1 or 2 mg/0.2 ml acetone/animal, w/v) followed 30 min later with TPA (3.2 nmol/0.2 ml acetone/animal). Animals were sacrificed at different times point i.e. 6, 12, 24 and 48 h post TPA treatment. The epidermis was separated from the whole skin and homogenized in 0.1 M Tris-HCl buffer (pH 7.2) using a Polytron tissue homogenizer (Brinkmann Instruments, Westbury, N.Y., USA) at 100,000×g supernatant, and microsomal fractions were prepared as described earlier (Katiyar and Mukhtar, 1997). The sample of 6 h treatment group was used to assess the ODC activity as this time point has previously been shown for optimal induction of the enzyme (Katiyar er al., 1996).
To assess the inhibitory effect of pre-application of Lupeol on TPA-induced edema, 1 cm-diameter punches of skin from vehicle-, Lupeol-, TPA- or Lupeol- and TPA-treated mice were removed, made free of fat pads, and weighed immediately. After drying for 24 h at 50° C., the skin punches were reweighed, and the loss of water content was determined. The difference in the amount of water gain between the control (vehicle treated) and TPA treated represented the extent of edema induced by TPA, whereas that between the control vehicle and Lupeol plus TPA represented the inhibitory effect of Lupeol. For the hyperplasia study, skin was removed, fixed in 10% formalin, and embedded in paraffin. Vertical sections (5 μm) were cut, mounted on a glass slide, and stained with hematoxylin and eosin.

A further data set deals with IκBα protein. Description: TPA-induced phosphorylation and degradation of IκBα (western blot). Format: in vivo, mouse. As to the method: FIG. 6. Inhibitory effect of Lupeol on TPA-induced activation of IKKα, and phosphorylation and degradation of IκBα in CD-1 mice: At different times after treatment, the animals were sacrificed, epidermal cytosolic was prepared, and protein expression was determined. Equal loading was confirmed by stripping the immunoblot and reprobing it for β-actin. The immunoblots shown here are representative of three independent experiments with similar results. The values above each lane indicate relative density of the band normalized to β-actin.
The animals were shaved on the dorsal side of the skin, divided into four groups and treated topically on the shaved area with either 0.4 ml vehicle (acetone), or TPA (3.2 nmol/0.4 ml acetone/animal, v/v), or Lupeol (1 or 2 mg/0.2 ml acetone/animal, w/v) followed 30 min later with TPA (3.2 nmol/0.2 ml acetone/animal). […]
Epidermis from the whole skin was separated as described earlier (Katiyar et al., 1999) and was homogenized in ice-cold lysis buffer [50 mM Tris-HCl, 150 mM NaCl, 1 mM EGTA, 1 mM EDTA, 20 mM NaF, 100 mM Na3VO4, 0.5% NP-40, 1% Triton X-100, 1 mM PMSF (pH 7.4)] with freshly added protease inhibitor cocktail, Protease Inhibitor Cocktail Set III (Calbiochem, La Jolla, Calif., USA). […] The protein content in the lysates was measured by DC BioRad assay (BioRad Laboratories, Hercules, Calif.) as per the manufacturer's protocol. […]
In general terms: A western blot detects proteins with antibodies after separation by electrophoresis.

Where [1] appears, read: Lupeol alone (2 mg), topical, no TPA, mean±SE of eight mice.
Where [2] appears, read: TPA + Lupeol (1 mg), Lupeol topical 30 min before TPA.
Where [3] appears, read: TPA + Lupeol (2 mg), Lupeol topical 30 min before TPA.

Regarding `C=C(C)[C@@H]1CC[C@]2(C)CC[C@]3(C)[C@H](CC[C@@H]4[C@@]5(C)CC[C@H](O)C(C)(C)[C@@H]5CC[C@]43C)[C@@H]12` [Lupeol, Lup-20(29)-en-3β-ol], in the data set on CD-1 mouse, the “effect on primary biomarkers of tumor promotion” value is “did not exhibit any significant effect”. The “protection against TPA-induced skin edema” value with CD-1 mouse skin (24 h post-treatment) amounted to 48%; in the data set with CD-1 mouse skin (48 h post-treatment) it was 43%. The “Skin punch weight 24 hrs” value was 13.5 ± 1.5 mg/cm2 in the data set on CD-1 mouse skin (setting [1]), 18.5 ± 1.0* mg/cm2 with CD-1 mouse skin (setting [2]) and 16.0 ± 1.5* mg/cm2 in the data set on CD-1 mouse skin (setting [3]). Also, the “Skin punch weight 48 hrs” value with CD-1 mouse skin (setting [1]) is on record as 15.5 ± 1.5 mg/cm2; with CD-1 mouse skin (setting [2]), 20.0 ± 1.0* mg/cm2; in the data set with CD-1 mouse skin (setting [3]), 16.5 ± 0.75* mg/cm2. Moreover, the “% protection 24 hrs” value in the data set on CD-1 mouse skin (TPA + Lupeol (1 mg)) amounted to 53%; in the data set on CD-1 mouse skin (TPA + Lupeol (2 mg)) it was 79%. Moreover, the results for the “% protection 48 hrs” value with CD-1 mouse skin (TPA + Lupeol (1 mg)) and with CD-1 mouse skin (TPA + Lupeol (2 mg)) were 52% and 85%, respectively. In addition, in the data set with CD-1 mouse skin (topical Lupeol alone, 24 and 48 h post treatment), the “skin edema after Lupeol alone” value is reported as “did not result in an increase in skin edema”. For the same compound, in the data set on IκBα protein (topical Lupeol 30 min prior to TPA), the “TPA-induced degradation of IκBα protein” value is reported as “significant inhibition”. For the same compound, the “TPA-induced phosphorylation of IκB protein (Ser32)” value in the data set with IκBα protein (topical Lupeol prior to TPA) was “dose dependent inhibition”.

The record behind these values is patent US8618082B2, “Lupeol anti-tumor agent and uses thereof” (Wisconsin Alumni Research Foundation, priority 2004, dated 2013).
